From US20230024108A1, “ADENOSINE A2A RECEPTOR ANTAGONISTS” (Teon Therapeutics, Inc., priority 2019, published 2023)
pEC50, pIC50: −log10 of the molar value.

Columns and labels:
[1] = target: T1, human A2A AdoR (Homo sapiens, UniProt P29274); experiment: Adenosine receptor binding assay, A2A ([3H]-CGS-21680); conditions: membranes of HEK-293 cells expressing human A2A AdoR; read-out: hA2A IC50
T1 construct: purchased PerkinElmer RBHA2AM400UA
Summary of the method: (§1)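 Filtration binding on membranes: A2A in HEK-293 with 6 nM [3H]-CGS-21680, Tris pH 7.4, 2 h; A2B in HEK-293 with 8 nM [3H]-DPCPX, HEPES pH 7.0, 1 h; A1 in CHO-K1 with 1 nM [3H]-DPCPX, HEPES pH 7.4, 1 h; room temperature. 8-point dilutions; IC50 converted to Ki (Cheng–Prusoff).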

[2] = tested on: phospho-CREB (pCREB); experiment: Human whole blood phospho-CREB (pCREB) assay / modulation of pCREB in human immune cells; type: cell-based; conditions: agonist (NECA or CGS-21680)-stimulated human blood cells
Method: Fresh human blood samples are derived from healthy volunteers and processed in heparin tubes. 67.5 ul of whole blood is aliquoted to each well in a 96-well plate and incubated at 37° C. for 30 min. Testing compounds are diluted with DMSO to make 8-point 3-fold serial dilution and 3.5 ul (20×) is added to each well. Cells are incubated with the compounds at 37° C. for 30 min. NECA (5 uM) is then added to each well and cells are incubated for 30 min at 37° C. Following the stimulation, cells are transferred to a 96-well deep well plates and fixed with 1 ml/well of lyse/fix buffer (1×) (BD Biosciences #558049) with vigorous shake at 37° C. for 10 min. Cells are centrifuged at 600 g for 6 min and washed twice with PBS, followed by addition of 800 ul/well Perm buffer III (BD Biosciences #558050). Cells are then pelleted at 600 g for 6 min, washed with FACS buffer (PBS+0.2% BSA+1 mM EDTA) and stained for 40 min at room temperature in the dark with an antibody cocktail containing PE mouse anti-human CD3 (BD Biosciences #555333, 1 ul/well), FITC mouse anti-human CD4 (BD Biosciences #5555346, 1 ul/well), PerCP-Cy™5.5 mouse anti-human CD8 (BD Biosciences #565310, 1 ul/well) and phospho-CREB (Ser133) (87G3) Rabbit mAb (Alexa Fluor® 647 Conjugate, CST #14001, 0.5 ul/well). Cells are then washed twice with FACS buffer and acquired on a flow cytometer (Sony Cell Sorter SH800). Data were analyzed using FlowJo version 9. The level of CREB phosphorylation from unstimulated cells (Low control: LC) and NECA-stimulated cells (High control: HC) are determined as mean fluorescent intensity (MFI) in stimulated condition/mean fluorescent intensity in unstimulated condition. % Inhibition is calculated as (MFI of HC-MFI of assay well)/(MFI of HC-MFI of LC)×100%. Data are analyzed and IC50s calculated using GraphPad Prism 5 and the model “log(inhibitor) vs. response—Variable slope”.
The A2A receptor is known to mediate CREB phosphorylation.
Venous blood from healthy volunteers, all of whom signed an informed consent approved by the Ethics Committee (FOR—UIC-BV-050-01-01 ICF HBS HD Version 5.0), was obtained via ImmuneHealth (Centre Hospitalier Universitaire Tivoli, La Louviere,
15 Belgium). Peripheral blood cells were treated with A2AR agonists CGS-21680 or NECA (Sigma-Aldrich, Diegem, Belgium), and a serial dilution of compounds disclosed herein (all used stock solutions at 10 mM in DMSO). All dilutions were prepared in RPMI1640 medium (with UltraGlutamine; Lonza, Venders, Belgium), and cells were incubated with compounds in a 37° C. humidified tissue culture incubator with 5% CO2.
After stimulation, cells were fixed and permeabilized, followed by intracellular staining using mouse anti-human pCREB antibodies (Clone J151-21; BD Biosciences) at room temperature. Data were acquired using an LSRFortessa flow cytometer (BD Biosciences) and analyzed using FlowJo software (FlowJo, LLC, Ashland, Oregon).

[3] = target: T2, human A2B AdoR (Homo sapiens, UniProt P29275); experiment: Adenosine receptor binding assay, A2B ([3H]-DPCPX); conditions: ratio A2B vs A2A binding
T2 construct: purchased PerkinElmer ES-013-M400UA
T2 sequence (P29275 1-332): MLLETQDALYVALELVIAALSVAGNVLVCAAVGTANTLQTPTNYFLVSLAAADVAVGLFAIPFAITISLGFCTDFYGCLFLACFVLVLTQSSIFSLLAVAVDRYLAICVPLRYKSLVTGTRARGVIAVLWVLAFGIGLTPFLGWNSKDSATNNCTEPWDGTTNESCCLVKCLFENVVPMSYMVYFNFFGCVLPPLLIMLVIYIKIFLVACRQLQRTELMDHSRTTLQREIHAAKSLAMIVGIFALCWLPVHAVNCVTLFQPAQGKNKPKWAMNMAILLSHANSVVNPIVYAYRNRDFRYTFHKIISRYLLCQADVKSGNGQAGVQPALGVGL
Method: Membranes prepared from CHO-K1 cells stably expressing Human AiAdoR (ES-010-M400UA), HEK-293 cells stably expressing human A2A AdoR (RBHA2AM400UA), HEK-293 cells stably expressing human A2B AdoR (ES-013-M400UA) and CHO-K1 cells stably expressing Human A3 AdoR (ES-012-M400UA) were purchased from PerkinElmer (Waltham, Mass., USA) and stored at −80° C. until use. Binding assays are performed using the radioligands. The final concentrations are as follows: [3H]-DPCPX (PerkinElmer, NET974001MC) at 1 nM for A1AdoR; [^3H]-CGS-21680 (PerkinElmer, NET1021250UC) at 6 nM for A2AAdoR, [3H]-DPCPX (PerkinElmer, NET974001MC) at 8 nM for A2BAdoR; [^3H]-HEMADO (ARC, Cat: ART1456) at 1 nM for A3AdoR. Testing compounds are diluted with DMSO to make 8-point 4-fold serial dilution. Nonspecific binding (Low control: LC) and total binding (High control: HC) are determined in the presence or absence of saturated cold ligand. Specific binding is calculated by subtracting nonspecific binding from total binding. All assays are performed in a final volume of 200 μl containing 1 μl of the test compound in DMSO, 100 μl of membrane preparation, and 99 μl of the radioligand in assay buffer (A1AdoR: 25 mM HEPES pH 7.4, 5 mM MgCl2, 1 mM CaCl2), 100 mM NaCl; A2AAdoR: 50 mM Tris HCl pH 7.4, 10 mM MgCl2, 1 mM EDTA; A2BAdoR: 50 mM HEPES pH 7.0, 5 mM MgCl2, 1 mM EDTA; A3AdoR: 25 HEPES pH 7.4, 10 mM MgCl2, 1 mM CaCl2), 0.5% BSA). The incubation is performed at room temperature with shaking at 300 rpm for 1 hour for A1AdoR, A2BAdoR and A3AdoR and 2 hours for A2AAdoR. After the incubation, the assay mixture is filtered through 96 GF/C filter plates (Perkin Elmer #6005174) using Perkin Elmer Filtermate Harvester, and then washed four times with ice-cold washing buffer (A1AdoR: 25 mM HEPES pH 7.4, 5 mM MgCl2, 1 mM CaCl2), 100 mM NaCl; A2AAdoR: 50 mM Tris HCl pH 7.4, 154 mM NaCl; A2BAdoR: 50 mM HEPES pH 6.5, 5 mM MgCl2, 1 mM EDTA, 0.2% BSA; A3AdoR: 50 mM Tris HCl pH 7.4). The filters are dried for 1 hour at 50° C. and [^3H] trapped on filter counted for radioactivity in Perkin Elmer Microscint 20 cocktail (#6013329) using Perkin Elmer MicroBeta2 Reader. The results are expressed as a percent inhibition of the control radioligand specific binding calculated using the following equation: % Inhibition=(1−(Assay well-Average_LC)/(Average_HC−Average_LC))×100%. Data are analyzed and IC50 is calculated using GraphPad Prism 5 and the model “log(inhibitor) vs. response—Variable slope”. The binding affinity of the compounds is determined by using the Cheng and Prusoff equation Ki=IC50/(1+[radioligand]/Kd).

[4] = target: T3, A1AdoR (Homo sapiens, UniProt P30542); experiment: Adenosine receptor binding assay, A1 ([3H]-DPCPX); conditions: ratio A1 vs A2A binding
T3 construct: purchased PerkinElmer ES-010-M400UA
T3 sequence (P30542 1-326): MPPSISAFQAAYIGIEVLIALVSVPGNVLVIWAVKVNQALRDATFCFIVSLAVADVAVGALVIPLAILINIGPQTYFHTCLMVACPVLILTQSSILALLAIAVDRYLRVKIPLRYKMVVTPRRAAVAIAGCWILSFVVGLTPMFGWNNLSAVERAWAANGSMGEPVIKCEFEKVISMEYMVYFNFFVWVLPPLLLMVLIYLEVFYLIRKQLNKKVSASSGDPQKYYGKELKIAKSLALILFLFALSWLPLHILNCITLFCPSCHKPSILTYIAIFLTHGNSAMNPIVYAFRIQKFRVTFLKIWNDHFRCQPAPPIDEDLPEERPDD
Summary of the method: as §1

T1 sequence (P29274 whole entry): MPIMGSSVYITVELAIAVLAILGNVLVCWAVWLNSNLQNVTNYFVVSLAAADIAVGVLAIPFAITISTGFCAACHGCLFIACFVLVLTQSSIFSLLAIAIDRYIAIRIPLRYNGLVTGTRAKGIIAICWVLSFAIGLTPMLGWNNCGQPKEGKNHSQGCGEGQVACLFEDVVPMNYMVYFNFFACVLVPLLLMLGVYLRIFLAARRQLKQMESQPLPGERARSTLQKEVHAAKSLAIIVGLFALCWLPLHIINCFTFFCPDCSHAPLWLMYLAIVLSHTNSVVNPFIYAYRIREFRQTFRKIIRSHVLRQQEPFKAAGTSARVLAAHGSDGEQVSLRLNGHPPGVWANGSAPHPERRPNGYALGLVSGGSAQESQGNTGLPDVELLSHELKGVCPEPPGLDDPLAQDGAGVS

pIC50 [1]: ≥ 7.70
pEC50 [2]: ≥ 7.70
A2B/A2A Selectivity [3]: a (greater than 1000)
A1/A2A Selectivity [4]: a (greater than 1000)
Compound: Cc1noc2cc(F)c(N3CCN(CCn4c(C(N)=O)c(Cl)c5c4nc(N)n4nc(-c6ccccn6)nc54)CC3)cc12 [5-amino-9-chloro-7-[2-[4-(6-fluoro-3-methyl-1,2-benzoxazol-5-yl)piperazin-1-yl]ethyl]-2-(2-pyridyl)-[1,2,4]triazolo[1,5-c]pyrrolo[3,2-e]pyrimidine-8-carboxamide]
